The results in this text go back to patent US6657086B2, “C2-substituted indan-1-ols and their derivatives, processes for their preparation and their use as pharmaceuticals” (Aventis Pharma Deutschland GmbH, priority 2001, dated 2003).

The subject of one data set is female NMRI mice. Nature of the data set: Anorectic action: cumulative evaporated milk consumption after 24 h feed removal. It counts as in vivo. The conditions noted are these: compared with control animals. The method, then: The activity of the compounds was assayed as follows:
The anorectic action was tested on female NMRI mice. After removal of feed for 24 hours, the preparation to be tested was administered intraperitoneally (ip) or by gavage (po). The animals were housed singly and, with free access to drinking water, they were offered evaporated milk 30 minutes after administration of the preparation. The consumption of evaporated milk was determined and the general behavior of the animals was monitored every half an hour for 7 hours. The measured milk consumption was compared to that of vehicle-treated control animals.

By melting point is commonly meant the temperature, or range, at which the solid turns liquid.

The compound `CS(=O)(=O)C1Cc2cc(Cl)ccc2C1O` (stereo not shown) [Example 1, 5-Chloro-2-methylsulfonylindan-1-ol] gave a melting point of 163 °C. Also, the “Reduction in cumulative milk consumption as % of the control” value in the data set with female NMRI mice (dose 20 mg/kg) is 50%.

Compound `CCS(=O)(=O)C1Cc2cc(Cl)ccc2C1O` (stereo not shown) [Example 3, 5-Chloro-2-ethanesulfonylindan-1-ol] gave a melting point of 145 °C.

Consider `CSC1Cc2cc(Cl)ccc2C1O` (stereo not shown) [Example 4, 5-Chloro-2-methylsulfanylindan-1-ol], for which the “Reduction in cumulative milk consumption as % of the control” value in the data set on female NMRI mice (dose 50 mg/kg) is given as 85%.
